Converted amounts (≈) assume the structure as drawn.
Tests used:
[1] = system: Staphylococcus aureus; test: Antibacterial activity against Staphylococcus aureus ATCC 29213 assessed as reduction in bacterial cell growth incubated for 18 hrs by CSLI based broth microdilution method; type: functional
[2] = system: Escherichia coli; test: Antibacterial activity against Escherichia coli ATCC 25922 assessed as reduction in bacterial cell growth incubated for 18 hrs by CSLI based broth microdilution method; type: functional
[3] = Inhibition of Escherichia coli topoisomerase IV by measuring relaxation activity incubated for 30 mins by fluorescence based assay
[4] = system: Escherichia coli; test: Antibacterial activity against Escherichia coli ATCC 25922 in presence of PAbetaN by CLSI method; type: functional
[5] = Cytotoxicity against human HepG2 cells assessed as reduction in cell viability at 50 uM incubated for 48 hrs by CCK-8 assay
[6] = system: Fusobacterium nucleatum; test: Antibacterial activity against Fusobacterium nucleatum JCM8532 by CLSI method; type: functional
[7] = system: Enterococcus faecium; test: Antibacterial activity against Enterococcus faecium ATCC 35667 by CLSI method; type: functional
[8] = system: Porphyromonas gingivalis; test: Antibacterial activity against Porphyromonas gingivalis JCM8525 by CLSI method; type: functional
[9] = biological target: DNA gyrase (Escherichia coli, UniProt P0AES4+P0AES6); test: Inhibition of Escherichia coli DNA gyrase by measuring supercoiling activity incubated for 60 mins by fluorescence based assay; type: protein-complex assay
[10] = system: Enterococcus faecalis; test: Antibacterial activity against vancomycin-resistant Enterococcus faecalis ATCC 51575 by CLSI method; type: functional
[11] = system: Staphylococcus aureus; test: Antibacterial activity against community-acquired Methicillin -resistant Staphylococcus aureus ATCC BAA-1556 by CLSI method; type: functional
[12] = system: Haemophilus influenzae; test: Antibacterial activity against Haemophilus influenzae ATCC 43095 by CLSI method; type: functional
[13] = biological target: DNA topoisomerase 2-alpha (Homo sapiens, UniProt P11388); test: Inhibition of human topoisomerase 2alpha; type: ADME
Sequence of DNA topoisomerase 2-alpha (P11388 whole entry): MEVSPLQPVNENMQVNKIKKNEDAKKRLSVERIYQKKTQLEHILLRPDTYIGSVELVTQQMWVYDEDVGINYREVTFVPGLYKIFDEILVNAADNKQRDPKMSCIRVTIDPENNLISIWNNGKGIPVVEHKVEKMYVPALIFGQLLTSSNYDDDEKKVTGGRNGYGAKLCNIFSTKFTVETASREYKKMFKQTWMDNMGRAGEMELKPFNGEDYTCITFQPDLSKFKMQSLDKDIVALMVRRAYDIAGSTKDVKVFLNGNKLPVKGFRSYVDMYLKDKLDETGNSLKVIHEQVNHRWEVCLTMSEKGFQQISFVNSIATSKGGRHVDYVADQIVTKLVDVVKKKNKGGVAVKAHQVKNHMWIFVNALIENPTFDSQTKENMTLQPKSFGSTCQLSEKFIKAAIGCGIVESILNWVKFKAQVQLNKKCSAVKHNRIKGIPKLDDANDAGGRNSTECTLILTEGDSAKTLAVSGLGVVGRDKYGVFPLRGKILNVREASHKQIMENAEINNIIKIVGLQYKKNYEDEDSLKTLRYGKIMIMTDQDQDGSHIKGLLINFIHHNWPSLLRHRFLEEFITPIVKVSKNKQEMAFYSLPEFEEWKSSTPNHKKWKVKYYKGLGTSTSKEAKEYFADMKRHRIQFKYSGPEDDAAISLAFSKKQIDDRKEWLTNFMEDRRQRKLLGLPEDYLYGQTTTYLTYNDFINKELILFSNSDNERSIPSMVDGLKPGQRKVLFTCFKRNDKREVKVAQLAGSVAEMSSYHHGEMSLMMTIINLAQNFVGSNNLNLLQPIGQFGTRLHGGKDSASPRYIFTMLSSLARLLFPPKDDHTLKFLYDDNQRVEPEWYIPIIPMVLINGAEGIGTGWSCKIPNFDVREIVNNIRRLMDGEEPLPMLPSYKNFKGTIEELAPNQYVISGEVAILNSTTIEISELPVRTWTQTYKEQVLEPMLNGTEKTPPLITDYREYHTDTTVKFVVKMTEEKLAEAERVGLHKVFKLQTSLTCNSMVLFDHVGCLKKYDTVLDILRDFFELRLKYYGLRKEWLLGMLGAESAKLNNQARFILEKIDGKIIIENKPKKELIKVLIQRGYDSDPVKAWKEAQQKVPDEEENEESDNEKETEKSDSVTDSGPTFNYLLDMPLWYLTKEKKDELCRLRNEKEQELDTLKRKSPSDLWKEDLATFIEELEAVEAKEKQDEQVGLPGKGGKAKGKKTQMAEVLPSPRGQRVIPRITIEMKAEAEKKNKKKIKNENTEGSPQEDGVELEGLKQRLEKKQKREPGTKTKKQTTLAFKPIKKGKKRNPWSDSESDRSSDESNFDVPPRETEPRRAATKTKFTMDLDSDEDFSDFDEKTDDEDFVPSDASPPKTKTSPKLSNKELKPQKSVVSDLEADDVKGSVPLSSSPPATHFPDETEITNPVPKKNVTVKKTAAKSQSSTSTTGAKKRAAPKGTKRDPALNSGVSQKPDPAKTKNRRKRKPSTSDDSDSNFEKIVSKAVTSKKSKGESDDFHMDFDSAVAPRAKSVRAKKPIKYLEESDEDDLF

[14] = system: Enterococcus faecalis; test: Antibacterial activity against Enterococcus faecalis ATCC 29212 by CLSI method; type: functional
[15] = system: Staphylococcus aureus; test: Antibacterial activity against Staphylococcus aureus ATCC 29213 by CLSI method; type: functional
[16] = system: Bacteroides fragilis; test: Antibacterial activity against Bacteroides fragilis ATCC 25285 by CLSI method; type: functional
[17] = system: Staphylococcus aureus; test: Antibacterial activity against hospital-acquired Methicillin -resistant Staphylococcus aureus ATCC BAA-811 by CLSI method; type: functional
[18] = Cytotoxicity against human HepG2 cells assessed as reduction in cell viability at 10 uM incubated for 48 hrs by CCK-8 assay
[19] = system: Peptostreptococcus anaerobius; test: Antibacterial activity against Peptostreptococcus anaerobius ATCC 27337 by CLSI method; type: functional
[20] = system: Streptococcus pneumoniae; test: Antibacterial activity against Streptococcus pneumoniae ATCC 49619 by CLSI method; type: functional
[21] = system: Escherichia coli; test: Antibacterial activity against Escherichia coli ATCC 25922 by CLSI method; type: functional
[22] = system: Streptococcus anginosus; test: Antibacterial activity against Streptococcus anginosus ATCC 33397 by CLSI method; type: functional
[23] = system: Enterococcus faecium; test: Antibacterial activity against vancomycin-resistant Enterococcus faecium ATCC 51559 by CLSI method; type: functional
[24] = system: Enterococcus; test: Antibacterial activity against Vancomycin-resistant Enterococcus by CLSI method; type: functional
[25] = system: Staphylococcus aureus; test: Antibacterial activity against Methicillin-resistant Staphylococcus aureus by CLSI method; type: functional
[26] = system: Prevotella melaninogenica; test: Antibacterial activity against Prevotella melaninogenica JCM6325 by CLSI method; type: functional
[27] = system: Streptococcus pneumoniae; test: Antibacterial activity against genotype penicillin-resistant Streptococcus pneumoniae by CLSI method; type: functional
[28] = biological target: Voltage-gated inwardly rectifying potassium channel KCNH2 (Homo sapiens, UniProt Q12809); test: Inhibition of human ERG expressed in CHO cells by Q-patch clamp assay
Sequence of Voltage-gated inwardly rectifying potassium channel KCNH2 (Q12809 whole entry): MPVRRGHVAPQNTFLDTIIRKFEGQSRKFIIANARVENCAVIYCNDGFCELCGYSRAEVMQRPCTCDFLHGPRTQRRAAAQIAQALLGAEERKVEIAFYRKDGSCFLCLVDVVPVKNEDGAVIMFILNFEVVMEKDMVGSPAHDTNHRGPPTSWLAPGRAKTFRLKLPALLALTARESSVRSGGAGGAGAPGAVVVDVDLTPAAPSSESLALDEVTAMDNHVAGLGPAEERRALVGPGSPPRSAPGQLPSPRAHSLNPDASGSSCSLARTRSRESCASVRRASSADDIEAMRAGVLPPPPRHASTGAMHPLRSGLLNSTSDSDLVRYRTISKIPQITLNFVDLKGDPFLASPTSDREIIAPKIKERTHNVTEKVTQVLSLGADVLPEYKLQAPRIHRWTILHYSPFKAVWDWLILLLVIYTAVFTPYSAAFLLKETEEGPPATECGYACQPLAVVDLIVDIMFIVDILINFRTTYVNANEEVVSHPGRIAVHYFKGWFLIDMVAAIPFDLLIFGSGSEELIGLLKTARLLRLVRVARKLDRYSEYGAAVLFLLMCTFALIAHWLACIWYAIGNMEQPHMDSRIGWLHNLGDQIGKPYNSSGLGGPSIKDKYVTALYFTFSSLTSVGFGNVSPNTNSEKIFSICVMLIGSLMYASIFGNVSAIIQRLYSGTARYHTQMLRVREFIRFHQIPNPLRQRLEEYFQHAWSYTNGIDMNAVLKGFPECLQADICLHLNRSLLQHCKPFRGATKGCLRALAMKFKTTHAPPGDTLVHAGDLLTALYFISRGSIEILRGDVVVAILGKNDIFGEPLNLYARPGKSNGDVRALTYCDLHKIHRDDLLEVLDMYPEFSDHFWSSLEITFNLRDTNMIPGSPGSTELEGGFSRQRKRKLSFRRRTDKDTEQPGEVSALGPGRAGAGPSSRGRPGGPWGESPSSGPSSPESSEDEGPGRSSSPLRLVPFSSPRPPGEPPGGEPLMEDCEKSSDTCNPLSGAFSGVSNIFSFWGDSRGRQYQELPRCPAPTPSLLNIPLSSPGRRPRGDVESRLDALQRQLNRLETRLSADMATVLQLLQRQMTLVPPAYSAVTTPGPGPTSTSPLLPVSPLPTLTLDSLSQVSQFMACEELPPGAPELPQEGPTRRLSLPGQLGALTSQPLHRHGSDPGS

[29] = system: Clostridioides difficile; test: Antibacterial activity against Clostridioides difficile ATCC 700057 by CLSI method; type: functional

CNc1cccc2cc(C(=O)Nc3ccc(C(=O)O)cc3)c(=O)[nH]c12
MIC [1]: 16 mg/L (≈ 47.4 µM) | MIC [2]: 64 mg/L (≈ 190 µM) | IC50 [3]: 0.98 µM | MIC [4]: < 0.03 mg/L

CO[C@@H]1[C@@H](OC(N)=O)[C@@H](O)[C@H](Oc2ccc3c(O)c(NC(=O)c4ccc(O)c(CC=C(C)C)c4)c(=O)oc3c2C)OC1(C)C [NOVOBIOCIN]
MIC [1]: 0.13 mg/L (≈ 0.212 µM) | MIC [2]: 64 mg/L (≈ 104 µM)

CCCCCN(CCCCC)Cc1cc(C(=O)O)ccc1NC(=O)c1cc2cc(F)cc(NC)c2[nH]c1=O
cytotoxicity at 48 h, 50 µM ([5]; hepg2): 46.7% | MIC [6]: 1 mg/L (≈ 1.91 µM) | MIC [7]: 0.06 mg/L (≈ 0.114 µM) | MIC [8]: 0.12 mg/L (≈ 0.229 µM) | IC50 [9]: 0.0008 µM | MIC [10]: 0.015 mg/L (≈ 0.0286 µM) | MIC [11]: 0.5 mg/L (≈ 0.953 µM) | MIC [12]: 0.25 mg/L (≈ 0.477 µM) | MIC [4]: ≤ 0.03 mg/L | IC50 [13]: > 100 µM | MIC [14]: 0.015 mg/L (≈ 0.0286 µM) | MIC [15]: 0.06 mg/L (≈ 0.114 µM) | MIC [16]: > 32 mg/L | MIC [17]: 0.5 mg/L (≈ 0.953 µM) | cytotoxicity at 48 h, 10 µM ([18]; hepg2): 8.11% | MIC [19]: 0.12 mg/L (≈ 0.229 µM) | MIC [20]: 0.015 mg/L (≈ 0.0286 µM)

CNc1cc(F)cc2cc(C(=O)Nc3ccc(C(=O)NS(=O)(=O)N(C)C)cc3)c(=O)[nH]c12
MIC [21]: 16 mg/L (≈ 34.7 µM) | MIC [7]: 0.06 mg/L (≈ 0.13 µM) | IC50 [9]: 0.00043 µM | IC50 [3]: 0.0519 µM | MIC [12]: 0.06 mg/L (≈ 0.13 µM) | MIC [4]: ≤ 0.015 mg/L | MIC [22]: 0.12 mg/L (≈ 0.26 µM) | MIC [14]: 0.03 mg/L (≈ 0.065 µM) | MIC [20]: 0.06 mg/L (≈ 0.13 µM)

CN(C)c1cc(NC(=O)CNC(C)(C)C)c(O)c2c1C[C@H]1C[C@H]3[C@H](N(C)C)C(O)=C(C(N)=O)C(=O)[C@@]3(O)C(O)=C1C2=O [TIGECYCLINE]
MIC [21]: 0.25 mg/L (≈ 0.427 µM) | MIC [7]: 0.06 mg/L (≈ 0.102 µM) | MIC [23]: 0.12 mg/L (≈ 0.205 µM) | MIC50 [24]: 0.25 mg/L (≈ 0.427 µM) | MIC90 [24]: 0.5 mg/L (≈ 0.854 µM) | MIC [10]: 0.25 mg/L (≈ 0.427 µM) | MIC [11]: 0.5 mg/L (≈ 0.854 µM) | MIC [25]: 0.25 mg/L (≈ 0.427 µM) | MIC50 [25]: 0.25 mg/L (≈ 0.427 µM) | MIC90 [25]: 2 mg/L (≈ 3.41 µM) | MIC [22]: 0.06 mg/L (≈ 0.102 µM) | MIC [14]: 0.12 mg/L (≈ 0.205 µM) | MIC [15]: 0.25 mg/L (≈ 0.427 µM) | MIC [17]: 0.25 mg/L (≈ 0.427 µM) | MIC [20]: 0.06 mg/L (≈ 0.102 µM)

CO/N=C(\C(=O)N[C@@H]1C(=O)N2C(C(=O)O)=C(CSc3nc(=O)c(O)nn3C)CS[C@H]12)c1csc(N)n1 [CEFTRIAXONE]
MIC [6]: 0.5 mg/L (≈ 0.902 µM) | MIC [8]: ≤ 0.12 mg/L | MIC [26]: 1 mg/L (≈ 1.8 µM) | MIC50 [27]: 1 mg/L (≈ 1.8 µM) | MIC90 [27]: 4 mg/L (≈ 7.21 µM) | MIC [16]: 64 mg/L (≈ 115 µM) | MIC [19]: 0.5 mg/L (≈ 0.902 µM)

CNc1cc(F)cc2c(O)c(C(=O)Nc3ccc(C(=O)O)cc3CN3CCCCC3)c(=O)[nH]c12.O=C(O)C(F)(F)F
MIC [21]: 8 mg/L | MIC [7]: 1 mg/L | IC50 [9]: 0.00753 µM | IC50 [3]: 4.93 µM | MIC [12]: 0.12 mg/L | MIC [4]: ≤ 0.015 mg/L | MIC [22]: 0.5 mg/L | MIC [14]: 0.12 mg/L | MIC [20]: 0.5 mg/L

CNc1cc(F)cc2c(O)c(C(=O)Nc3ccc(C(=O)NS(=O)(=O)N(C)C)cc3)c(=O)[nH]c12
cytotoxicity at 48 h, 50 µM ([5]; HepG2 cells): 38% | MIC [21]: 1 mg/L (≈ 2.09 µM) | MIC [7]: 0.03 mg/L (≈ 0.0628 µM) | IC50 [9]: 0.00266 µM | IC50 [3]: 0.127 µM | MIC [23]: 0.03 mg/L (≈ 0.0628 µM) | MIC [10]: 0.015 mg/L (≈ 0.0314 µM) | MIC [11]: 1 mg/L (≈ 2.09 µM) | MIC [12]: ≤ 0.015 mg/L | MIC [4]: ≤ 0.015 mg/L | MIC [22]: 0.12 mg/L (≈ 0.251 µM) | IC50 [13]: 20.9 µM | IC50 [28]: > 30 µM | MIC [14]: 0.015 mg/L (≈ 0.0314 µM) | MIC [17]: 1 mg/L (≈ 2.09 µM) | cytotoxicity at 48 h, 10 µM ([18]; HepG2 cells): 3.61% | MIC [20]: 0.06 mg/L (≈ 0.126 µM)

CNc1cc(F)cc2cc(C(=O)Nc3ccc(C(=O)O)cc3CN3CCCCC3)c(=O)[nH]c12
MIC [21]: 8 mg/L (≈ 17.7 µM) | MIC [7]: 0.03 mg/L (≈ 0.0663 µM) | IC50 [9]: 0.00031 µM | IC50 [3]: 0.0153 µM | MIC [23]: 0.015 mg/L (≈ 0.0332 µM) | MIC [10]: 0.015 mg/L (≈ 0.0332 µM) | MIC [11]: 4 mg/L (≈ 8.84 µM) | MIC [12]: 0.06 mg/L (≈ 0.133 µM) | MIC [4]: ≤ 0.03 mg/L | MIC [22]: 0.03 mg/L (≈ 0.0663 µM) | MIC [14]: 0.015 mg/L (≈ 0.0332 µM) | MIC [15]: 4 mg/L (≈ 8.84 µM) | MIC [17]: 4 mg/L (≈ 8.84 µM) | MIC [20]: 0.03 mg/L (≈ 0.0663 µM)

CCC[C@@H]1C[C@@H](C(=O)N[C@@H]([C@H]2O[C@H](SC)[C@H](O)[C@@H](O)[C@H]2O)[C@H](C)Cl)N(C)C1 [CLINDAMYCIN]
MIC [8]: ≤ 0.015 mg/L | MIC [29]: 8 mg/L (≈ 18.8 µM) | MIC [26]: 0.03 mg/L (≈ 0.0706 µM) | MIC [16]: 1 mg/L (≈ 2.35 µM) | MIC [19]: 0.25 mg/L (≈ 0.588 µM)

CNc1cc(F)cc2cc(C(=O)Nc3ccc(C(=O)O)cc3CN(CCO)C3CCCCC3)c(=O)[nH]c12.Cl
cytotoxicity at 48 h, 50 µM ([5]; HepG2 cells): 7.76% | MIC [21]: 4 mg/L | MIC [6]: 0.12 mg/L | MIC [7]: 0.015 mg/L | MIC [8]: 0.12 mg/L | IC50 [9]: 0.00029 µM | IC50 [3]: 0.0234 µM | MIC [23]: 0.015 mg/L | MIC [10]: 0.008 mg/L | MIC [11]: 1 mg/L | MIC [12]: 0.06 mg/L | MIC [4]: ≤ 0.03 mg/L | MIC [29]: 1 mg/L | MIC [26]: > 32 mg/L | MIC [22]: 0.008 mg/L | IC50 [13]: > 100 µM | IC50 [28]: > 30 µM | MIC [14]: 0.008 mg/L | MIC [15]: 0.5 mg/L | MIC [16]: > 32 mg/L | MIC [17]: 1 mg/L | cytotoxicity at 48 h, 10 µM ([18]; HepG2 cells): -2.04% | MIC [19]: 0.12 mg/L | MIC [20]: 0.015 mg/L

CNc1cc(F)cc2cc(C(=O)Nc3ccc(CO)cc3CN(CCO)C3CCCCC3)c(=O)[nH]c12
cytotoxicity at 48 h, 50 µM ([5]; hepg2): 98.5% | MIC [8]: 4 mg/L (≈ 8.06 µM) | IC50 [9]: 0.0016 µM | MIC [23]: 0.25 mg/L (≈ 0.503 µM) | MIC [10]: 0.015 mg/L (≈ 0.0302 µM) | MIC [11]: 2 mg/L (≈ 4.03 µM) | MIC [4]: ≤ 0.03 mg/L | MIC [26]: > 32 mg/L | MIC [22]: 0.06 mg/L (≈ 0.121 µM) | IC50 [13]: > 100 µM | MIC [14]: 0.03 mg/L (≈ 0.0604 µM) | MIC [15]: 1 mg/L (≈ 2.01 µM) | MIC [16]: > 32 mg/L | MIC [17]: 1 mg/L (≈ 2.01 µM) | cytotoxicity at 48 h, 10 µM ([18]; hepg2): -15.3% | MIC [20]: 0.06 mg/L (≈ 0.121 µM)
